Laboratory results: ChEMBL document CHEMBL5550205, “Discovery of a NCOA4 Degrader for Labile Iron-Dependent Ferroptosis Inhibition” (J Med Chem, 2024)
Active and inactive are the calls of the source. No cut-off for these calls is given here.

Biological target: von Hippel-Lindau disease tumor suppressor/Nuclear receptor coactivator 4 (Homo sapiens, UniProt P40337+Q13772)
Experiment: PROTAC activity at NCOA4/VHL in human HeLa cells assessed as induction of NCOA4 degradation at 50 nM measured for 24 hrs by Western blot analysis
Format: cell-based

Sequence of von Hippel-Lindau disease tumor suppressor/Nuclear receptor coactivator 4 (P40337 whole entry, looked up): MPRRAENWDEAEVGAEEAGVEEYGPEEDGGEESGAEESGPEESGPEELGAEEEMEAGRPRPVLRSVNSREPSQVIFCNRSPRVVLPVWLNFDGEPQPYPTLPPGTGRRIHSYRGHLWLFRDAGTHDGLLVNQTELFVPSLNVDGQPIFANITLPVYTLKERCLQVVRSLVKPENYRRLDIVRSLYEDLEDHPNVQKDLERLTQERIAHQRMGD
Sequence of von Hippel-Lindau disease tumor suppressor/Nuclear receptor coactivator 4 (Q13772 whole entry, looked up): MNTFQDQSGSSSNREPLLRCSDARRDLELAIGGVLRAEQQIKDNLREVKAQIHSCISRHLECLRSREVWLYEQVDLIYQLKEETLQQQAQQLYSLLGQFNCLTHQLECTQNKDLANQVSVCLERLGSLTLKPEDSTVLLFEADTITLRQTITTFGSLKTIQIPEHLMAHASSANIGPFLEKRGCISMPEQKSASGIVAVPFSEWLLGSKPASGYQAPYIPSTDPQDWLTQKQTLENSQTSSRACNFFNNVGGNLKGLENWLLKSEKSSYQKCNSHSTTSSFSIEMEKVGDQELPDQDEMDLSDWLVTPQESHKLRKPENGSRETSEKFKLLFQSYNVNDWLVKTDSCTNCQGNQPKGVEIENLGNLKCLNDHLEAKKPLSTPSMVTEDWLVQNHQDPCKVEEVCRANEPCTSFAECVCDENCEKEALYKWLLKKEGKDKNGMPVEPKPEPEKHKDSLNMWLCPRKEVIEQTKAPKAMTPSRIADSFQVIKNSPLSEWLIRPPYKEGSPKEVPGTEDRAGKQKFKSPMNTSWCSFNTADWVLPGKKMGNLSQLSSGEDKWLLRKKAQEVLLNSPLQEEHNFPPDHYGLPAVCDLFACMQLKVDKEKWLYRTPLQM

Activity: Active
Compound: CN1CCN(c2ccc3nc(-c4cccc(N5CCc6cc(F)ccc6C5)c4)[nH]c3c2)CC1
